Experimental findings from ChEMBL document CHEMBL1201862, “PubChem BioAssay data set” (2004) are described below.

For one assay, the target named is T1, Hexokinase HKDC1 (Homo sapiens, UniProt Q2TB90).
T1 sequence (Q2TB90 whole entry): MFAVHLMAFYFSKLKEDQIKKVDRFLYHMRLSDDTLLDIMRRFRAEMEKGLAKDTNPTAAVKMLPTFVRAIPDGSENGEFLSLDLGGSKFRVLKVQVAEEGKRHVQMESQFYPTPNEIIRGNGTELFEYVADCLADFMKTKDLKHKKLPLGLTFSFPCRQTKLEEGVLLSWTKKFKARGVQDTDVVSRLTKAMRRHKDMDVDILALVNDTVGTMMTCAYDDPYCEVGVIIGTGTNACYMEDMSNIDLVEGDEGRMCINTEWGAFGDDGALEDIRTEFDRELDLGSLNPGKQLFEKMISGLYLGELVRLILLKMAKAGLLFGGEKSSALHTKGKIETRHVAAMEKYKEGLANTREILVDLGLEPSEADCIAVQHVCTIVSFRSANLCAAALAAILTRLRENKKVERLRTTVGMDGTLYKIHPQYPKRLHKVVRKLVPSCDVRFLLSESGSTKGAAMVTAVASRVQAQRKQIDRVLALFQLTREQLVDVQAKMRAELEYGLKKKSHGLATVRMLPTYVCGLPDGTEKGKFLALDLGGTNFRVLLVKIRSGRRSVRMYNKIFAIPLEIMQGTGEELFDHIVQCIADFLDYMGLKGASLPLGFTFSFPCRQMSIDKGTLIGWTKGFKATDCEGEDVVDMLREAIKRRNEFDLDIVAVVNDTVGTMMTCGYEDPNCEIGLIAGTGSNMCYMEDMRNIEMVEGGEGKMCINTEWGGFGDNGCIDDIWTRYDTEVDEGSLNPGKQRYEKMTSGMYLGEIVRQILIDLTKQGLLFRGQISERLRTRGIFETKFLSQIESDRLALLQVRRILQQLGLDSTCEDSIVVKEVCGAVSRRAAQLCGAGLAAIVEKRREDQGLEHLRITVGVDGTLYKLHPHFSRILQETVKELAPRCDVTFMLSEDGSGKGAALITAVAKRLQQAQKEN
As to the kind of experiment: HKDC1 hexokinase inhibitors, dose response, biochemical, W721R variant (AID 504729). It is filed as functional.

The target of assay [1] is T2, Histone-lysine N-methyltransferase NSD2 (Homo sapiens, UniProt O96028).
T2 sequence (O96028 whole entry): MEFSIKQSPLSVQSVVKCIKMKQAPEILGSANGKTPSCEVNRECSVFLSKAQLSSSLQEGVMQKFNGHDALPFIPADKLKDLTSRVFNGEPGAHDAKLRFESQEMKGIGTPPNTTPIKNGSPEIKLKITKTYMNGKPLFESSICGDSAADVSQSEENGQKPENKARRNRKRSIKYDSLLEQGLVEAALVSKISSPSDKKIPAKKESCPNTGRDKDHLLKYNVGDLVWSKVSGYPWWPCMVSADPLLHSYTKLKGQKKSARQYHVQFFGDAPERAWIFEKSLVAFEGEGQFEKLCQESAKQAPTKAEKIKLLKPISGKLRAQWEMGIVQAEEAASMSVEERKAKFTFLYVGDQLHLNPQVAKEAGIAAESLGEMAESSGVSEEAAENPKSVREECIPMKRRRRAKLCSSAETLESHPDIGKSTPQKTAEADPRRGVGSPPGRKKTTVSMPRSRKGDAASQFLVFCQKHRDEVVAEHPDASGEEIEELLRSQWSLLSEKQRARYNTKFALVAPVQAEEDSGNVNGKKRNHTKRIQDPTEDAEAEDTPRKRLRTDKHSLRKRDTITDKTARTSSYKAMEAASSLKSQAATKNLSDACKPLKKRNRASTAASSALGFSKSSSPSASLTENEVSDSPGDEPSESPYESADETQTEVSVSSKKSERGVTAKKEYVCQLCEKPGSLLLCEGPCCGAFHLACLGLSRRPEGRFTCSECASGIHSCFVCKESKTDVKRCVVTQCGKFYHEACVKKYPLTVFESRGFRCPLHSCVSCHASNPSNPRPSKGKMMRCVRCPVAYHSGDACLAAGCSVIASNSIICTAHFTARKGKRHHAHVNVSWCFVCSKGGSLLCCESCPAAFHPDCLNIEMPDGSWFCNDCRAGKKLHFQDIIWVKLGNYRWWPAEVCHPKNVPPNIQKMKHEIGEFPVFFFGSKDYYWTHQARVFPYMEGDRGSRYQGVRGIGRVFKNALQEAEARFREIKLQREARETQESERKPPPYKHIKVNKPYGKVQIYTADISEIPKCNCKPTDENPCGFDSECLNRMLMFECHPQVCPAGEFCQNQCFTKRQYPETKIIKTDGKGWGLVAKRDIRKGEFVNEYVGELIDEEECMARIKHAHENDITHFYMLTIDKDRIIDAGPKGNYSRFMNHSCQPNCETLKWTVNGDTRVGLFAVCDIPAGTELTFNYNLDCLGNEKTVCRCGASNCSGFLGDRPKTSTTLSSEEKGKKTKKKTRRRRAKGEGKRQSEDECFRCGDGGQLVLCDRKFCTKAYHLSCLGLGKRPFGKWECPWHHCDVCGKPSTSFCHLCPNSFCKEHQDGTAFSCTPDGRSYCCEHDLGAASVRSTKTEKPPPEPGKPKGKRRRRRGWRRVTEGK
It is filed as biochemical.

A short description of assay [2]: C. albicans growth with fluconazole, confirmation, fluorescence, retest (AID 2467). It is filed as functional, cell-based.
A short description of assay [3]: Luminescence-based dose response cell-based high throughput screening assay for cytotoxic compounds using the IEC-6 intestinal epithelial cell line. [Related pubchem assays: 1858 (Summary AID.), 1825 (Counterscreen.), 1907 (Confirmation screen.)]. Format: functional. For orientation: The purpose of a counterscreen is to sort out artefacts and off-target activity.

A further assay is described as follows: cells. Format: functional, cell-based.
For assay [4], the target named is Tyrosine-protein kinase JAK2 (Homo sapiens, UniProt O60674). It is filed as functional.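 Note: JAK2 tested as one member of a kinase panel.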
Assay [5] deals with Serine/threonine-protein kinase TBK1 (Homo sapiens, UniProt Q9UHD2). Briefly: Navigating the Kinome. Panel member name: TBK1. It is filed as functional.
Assay [6] has as its target Mast/stem cell growth factor receptor Kit (Homo sapiens, UniProt P10721). It is filed as functional.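 Note: KIT entry within a kinase panel assay.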
In assay [7] the target is Cyclin-dependent kinase 5 (Homo sapiens, UniProt Q00535). Format: functional.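 Note: CDK5 measured as one member of a kinase profiling panel.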
Assay [8] deals with Macrophage colony-stimulating factor 1 receptor (Homo sapiens, UniProt P07333). Format: functional.
The target in assay [9] is Inhibitor of nuclear factor kappa-B kinase subunit epsilon (Homo sapiens, UniProt Q14164). Briefly: Navigating the Kinome. Panel member name: IKBKE. Format: functional.

As a reminder, the IC50 is the concentration at which inhibition is half-maximal. What is called AC50 is the concentration at which the activity in the assay is half-maximal. The term EC50 denotes the concentration giving half of the maximal effect. Broadly, the Ki is the equilibrium dissociation constant of an inhibitor or competing ligand from its target.

Active and inactive are the calls of the source.

Chain of Serine/threonine-protein kinase TBK1 (Q9UHD2 whole entry): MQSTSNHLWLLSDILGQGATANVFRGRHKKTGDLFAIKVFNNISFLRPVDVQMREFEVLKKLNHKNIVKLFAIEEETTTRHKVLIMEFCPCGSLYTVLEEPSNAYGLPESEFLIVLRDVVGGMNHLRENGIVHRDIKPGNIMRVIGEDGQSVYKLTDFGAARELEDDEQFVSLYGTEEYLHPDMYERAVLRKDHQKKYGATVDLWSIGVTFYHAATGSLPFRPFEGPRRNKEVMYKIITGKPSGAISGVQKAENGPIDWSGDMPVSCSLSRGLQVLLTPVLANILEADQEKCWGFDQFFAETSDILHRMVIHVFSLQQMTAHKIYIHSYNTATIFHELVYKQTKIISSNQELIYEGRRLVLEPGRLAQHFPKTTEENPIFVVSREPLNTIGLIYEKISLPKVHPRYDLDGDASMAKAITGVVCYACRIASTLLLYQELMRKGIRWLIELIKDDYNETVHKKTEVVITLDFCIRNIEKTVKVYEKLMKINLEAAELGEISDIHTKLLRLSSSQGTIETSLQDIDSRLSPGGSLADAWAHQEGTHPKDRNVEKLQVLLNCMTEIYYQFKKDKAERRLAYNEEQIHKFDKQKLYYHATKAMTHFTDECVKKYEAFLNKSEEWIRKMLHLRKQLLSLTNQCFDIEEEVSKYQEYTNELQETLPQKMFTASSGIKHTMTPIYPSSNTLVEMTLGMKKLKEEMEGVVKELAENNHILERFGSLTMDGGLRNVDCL
Chain of Mast/stem cell growth factor receptor Kit (P10721 whole entry): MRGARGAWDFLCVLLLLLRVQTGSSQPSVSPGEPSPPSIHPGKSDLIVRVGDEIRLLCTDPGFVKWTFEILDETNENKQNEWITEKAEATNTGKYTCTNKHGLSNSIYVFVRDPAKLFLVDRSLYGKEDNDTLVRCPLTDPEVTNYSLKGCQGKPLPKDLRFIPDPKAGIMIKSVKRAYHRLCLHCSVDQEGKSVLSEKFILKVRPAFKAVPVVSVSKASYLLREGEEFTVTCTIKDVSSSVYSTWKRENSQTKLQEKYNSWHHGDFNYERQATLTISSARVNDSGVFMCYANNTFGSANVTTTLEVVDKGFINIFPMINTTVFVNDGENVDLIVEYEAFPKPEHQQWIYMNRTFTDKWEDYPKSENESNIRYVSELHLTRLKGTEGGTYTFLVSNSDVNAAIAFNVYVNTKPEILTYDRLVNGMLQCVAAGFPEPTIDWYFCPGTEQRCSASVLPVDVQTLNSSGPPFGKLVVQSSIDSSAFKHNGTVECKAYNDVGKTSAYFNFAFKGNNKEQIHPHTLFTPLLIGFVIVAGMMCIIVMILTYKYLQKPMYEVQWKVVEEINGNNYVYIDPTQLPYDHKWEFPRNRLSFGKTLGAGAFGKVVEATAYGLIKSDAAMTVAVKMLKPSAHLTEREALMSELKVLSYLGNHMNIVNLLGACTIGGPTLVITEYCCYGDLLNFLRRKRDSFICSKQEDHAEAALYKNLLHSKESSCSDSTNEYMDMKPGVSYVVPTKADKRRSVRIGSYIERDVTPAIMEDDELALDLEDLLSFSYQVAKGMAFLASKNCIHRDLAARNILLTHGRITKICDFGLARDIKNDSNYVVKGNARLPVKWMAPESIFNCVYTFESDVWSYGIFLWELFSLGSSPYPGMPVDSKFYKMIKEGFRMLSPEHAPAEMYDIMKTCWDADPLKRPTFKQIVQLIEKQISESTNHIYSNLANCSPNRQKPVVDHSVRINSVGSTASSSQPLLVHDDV
Chain of Tyrosine-protein kinase JAK2 (O60674 whole entry): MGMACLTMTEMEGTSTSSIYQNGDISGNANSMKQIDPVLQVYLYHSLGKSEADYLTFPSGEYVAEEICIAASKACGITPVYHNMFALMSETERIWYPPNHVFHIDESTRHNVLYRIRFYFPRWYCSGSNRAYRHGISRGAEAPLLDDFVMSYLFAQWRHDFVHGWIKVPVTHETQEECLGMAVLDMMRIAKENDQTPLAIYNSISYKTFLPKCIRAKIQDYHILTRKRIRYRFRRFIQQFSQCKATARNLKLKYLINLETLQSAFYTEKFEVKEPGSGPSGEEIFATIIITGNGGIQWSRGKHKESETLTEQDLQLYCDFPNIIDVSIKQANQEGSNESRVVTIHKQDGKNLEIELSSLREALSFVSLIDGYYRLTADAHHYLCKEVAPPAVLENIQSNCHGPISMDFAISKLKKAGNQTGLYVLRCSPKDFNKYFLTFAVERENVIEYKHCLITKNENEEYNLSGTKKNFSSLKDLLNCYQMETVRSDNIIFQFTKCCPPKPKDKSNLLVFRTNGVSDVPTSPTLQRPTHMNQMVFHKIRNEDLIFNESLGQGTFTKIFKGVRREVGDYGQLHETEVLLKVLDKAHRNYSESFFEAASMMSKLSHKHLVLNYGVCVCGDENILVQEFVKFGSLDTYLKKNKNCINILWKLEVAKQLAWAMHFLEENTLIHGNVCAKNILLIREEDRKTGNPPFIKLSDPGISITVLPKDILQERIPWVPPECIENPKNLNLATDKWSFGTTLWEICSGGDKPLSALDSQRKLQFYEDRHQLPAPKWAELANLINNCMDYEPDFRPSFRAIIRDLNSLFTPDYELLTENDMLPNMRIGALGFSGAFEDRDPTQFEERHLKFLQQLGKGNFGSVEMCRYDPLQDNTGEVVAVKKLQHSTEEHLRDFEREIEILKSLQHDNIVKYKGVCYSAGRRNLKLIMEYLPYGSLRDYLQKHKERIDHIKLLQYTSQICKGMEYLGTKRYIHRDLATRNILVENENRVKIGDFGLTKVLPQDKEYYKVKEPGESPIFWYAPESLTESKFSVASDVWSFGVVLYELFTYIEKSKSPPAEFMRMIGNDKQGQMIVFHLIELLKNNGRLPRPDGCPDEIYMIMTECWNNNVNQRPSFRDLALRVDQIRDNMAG
Chain of Cyclin-dependent kinase 5 (Q00535 whole entry): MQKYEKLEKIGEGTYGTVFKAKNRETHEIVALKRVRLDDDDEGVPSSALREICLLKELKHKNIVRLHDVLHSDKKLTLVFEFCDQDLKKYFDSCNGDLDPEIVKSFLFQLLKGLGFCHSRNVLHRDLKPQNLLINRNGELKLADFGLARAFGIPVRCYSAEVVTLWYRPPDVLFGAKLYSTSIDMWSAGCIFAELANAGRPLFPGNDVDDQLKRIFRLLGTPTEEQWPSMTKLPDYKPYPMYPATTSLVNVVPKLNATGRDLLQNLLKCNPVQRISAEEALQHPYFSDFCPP
Chain of Macrophage colony-stimulating factor 1 receptor (P07333 whole entry): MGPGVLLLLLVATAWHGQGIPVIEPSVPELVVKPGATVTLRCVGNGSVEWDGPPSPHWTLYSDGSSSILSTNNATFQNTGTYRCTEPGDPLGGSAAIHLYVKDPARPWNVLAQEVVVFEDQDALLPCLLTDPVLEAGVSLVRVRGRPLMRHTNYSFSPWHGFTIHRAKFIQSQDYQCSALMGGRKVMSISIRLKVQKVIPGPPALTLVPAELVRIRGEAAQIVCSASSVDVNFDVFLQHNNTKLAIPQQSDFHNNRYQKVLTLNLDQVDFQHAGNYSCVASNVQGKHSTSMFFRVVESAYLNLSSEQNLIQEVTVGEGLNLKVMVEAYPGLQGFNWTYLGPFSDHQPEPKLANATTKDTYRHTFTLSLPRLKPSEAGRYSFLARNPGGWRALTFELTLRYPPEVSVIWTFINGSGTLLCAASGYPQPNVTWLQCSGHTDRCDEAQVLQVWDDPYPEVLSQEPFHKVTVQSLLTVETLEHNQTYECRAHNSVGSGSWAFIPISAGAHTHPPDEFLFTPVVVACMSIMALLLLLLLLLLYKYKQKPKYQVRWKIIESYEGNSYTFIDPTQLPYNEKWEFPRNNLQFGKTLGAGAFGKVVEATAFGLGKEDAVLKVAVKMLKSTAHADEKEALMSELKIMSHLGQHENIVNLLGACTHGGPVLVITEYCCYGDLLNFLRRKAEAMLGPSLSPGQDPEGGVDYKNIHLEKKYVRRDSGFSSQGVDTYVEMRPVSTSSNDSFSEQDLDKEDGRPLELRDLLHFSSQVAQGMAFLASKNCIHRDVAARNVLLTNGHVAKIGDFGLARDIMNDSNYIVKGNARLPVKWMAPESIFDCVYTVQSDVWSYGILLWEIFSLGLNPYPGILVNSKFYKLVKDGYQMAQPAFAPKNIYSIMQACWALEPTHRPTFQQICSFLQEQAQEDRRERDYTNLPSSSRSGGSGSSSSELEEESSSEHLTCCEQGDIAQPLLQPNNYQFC
Chain of Inhibitor of nuclear factor kappa-B kinase subunit epsilon (Q14164 whole entry): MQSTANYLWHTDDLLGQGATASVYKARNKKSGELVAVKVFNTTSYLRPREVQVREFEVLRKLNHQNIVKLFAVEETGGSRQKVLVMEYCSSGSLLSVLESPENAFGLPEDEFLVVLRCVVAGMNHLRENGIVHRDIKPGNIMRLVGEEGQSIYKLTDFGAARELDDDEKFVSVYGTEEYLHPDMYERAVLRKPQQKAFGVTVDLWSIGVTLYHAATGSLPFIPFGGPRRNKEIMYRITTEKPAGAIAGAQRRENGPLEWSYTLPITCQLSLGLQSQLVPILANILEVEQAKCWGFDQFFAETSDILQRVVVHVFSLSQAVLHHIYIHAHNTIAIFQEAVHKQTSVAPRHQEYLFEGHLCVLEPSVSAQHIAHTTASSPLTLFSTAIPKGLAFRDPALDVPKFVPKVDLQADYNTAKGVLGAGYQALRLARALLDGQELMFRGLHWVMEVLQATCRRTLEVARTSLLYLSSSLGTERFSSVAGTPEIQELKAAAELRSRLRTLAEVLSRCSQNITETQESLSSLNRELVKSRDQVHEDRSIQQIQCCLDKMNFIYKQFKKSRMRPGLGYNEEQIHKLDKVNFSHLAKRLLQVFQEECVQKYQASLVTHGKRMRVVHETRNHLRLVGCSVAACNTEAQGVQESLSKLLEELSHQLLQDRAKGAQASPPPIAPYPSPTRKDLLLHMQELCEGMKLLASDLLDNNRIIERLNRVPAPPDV

`O=C(NC1=C(NC2CCS(=O)(=O)C2)C(=O)c2ccccc2C1=O)c1ccccc1` (stereo unspecified): the IC50 at Hexokinase HKDC1 is 5.14 µM (active). Moreover, in assay [1], the AC50 was > 20 µM (inactive).
With `CCCC(=O)NC(c1ccc(N(C)C)cc1)c1ccc2cccnc2c1O` (stereo unspecified), the results for the concentration for a half-maximal effect (EC50) (in [2]; in “cells”) were 0.626 µM (active) and > 350 µM (not active), respectively. Also, the IC50 in assay [3] was 1.55 µM (active).
As to `O=C1NC(=O)C(c2c[nH]c3ccccc23)=C1c1nc(N2CCNCC2)nc2ccccc12`, the Ki in assay [4] is > 2.51 µM (inactive); in assay [5], > 3.16 µM (inactive); in [6], > 6.31 µM (inactive); in assay [7] it was 0.794 µM (active); in [8], > 2.51 µM (inactive); in assay [9] it was > 3.16 µM (inactive).
